The values below come from the METLIN SMRT retention time set (Domingo-Almenara et al. 2019).

The data set is described as follows: gradient 5% acetonitrile 3 min, to 50% in 2 min, to 85% in 15 min, held 3 min, 100 µL/min. Particulars: column: Zorbax Extend-C18 2.1 x 50 mm; eluents: water / acetonitrile, 0.1% formic acid. The gist of the method:
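The system's dead and dwell volumes were 40 μL and 900 μL, with a Zorbax Extend-C18 column (2.1 × 50 mm, 1.8 μm) run at 100 μL/min in water and acetonitrile containing 0.1% formic acid each. Pure standards were analyzed in mixtures of ~100 molecules by HPLC–quadrupole time-of-flight mass spectrometry in positive and negative ionization mode. Retention time was assigned from computationally picked, manually inspected adduct peaks.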
`Cn1cc(S(=O)(=O)N2CCC(C(=O)NCc3ccccc3Cl)CC2)cc1C(=O)N1CCCC1` showed an RP-LC retention time of 752 s.

For the molecule `CC1CCCN(S(=O)(=O)c2ccc(-c3nnc(C(C)C)o3)o2)C1` (stereo not given), the RP-LC retention time amounted to 977 s.

On to `COC(=O)C1=CN(c2cccc(Cl)c2)c2ccccc2S1(=O)=O`, for which the RP-LC retention time is 879 s.

For the molecule `COc1cccc(NC(=O)C2CCN(S(=O)(=O)c3ccc4c(c3)CCCN4C(C)=O)CC2)c1`, the RP-LC retention time worked out at 836 s.

`COc1ccc(CCNC(=O)Cn2c(=O)n(CC3CCCO3)c(=O)c3ccccc32)cc1OC` (stereo not given) came in with an RP-LC retention time of 732 s.

In turn, `CCc1cccc(C)c1Nc1c(-c2ccc(N3CCOCC3)cc2)nc2cnccn12` showed an RP-LC retention time of 817 s.

In the case of `Cn1nc2n(c1=O)CCN(C(=O)c1cc(C3CC3)[nH]n1)CC2`, the RP-LC retention time is 575 s.

In turn, `Cc1ccc(C(=O)N2CCC(C(=O)N3CCCCCCNC(=O)CC3)CC2)s1` came in with an RP-LC retention time of 668 s.

The molecule `Cc1cccc(N2C(=O)CN(Cc3ccco3)[C@H]3CS(=O)(=O)C[C@H]32)c1` gave an RP-LC retention time of 744 s.

Molecule `CCCN1C(=O)C2CCC(=O)N2c2ccc(C(=O)Nc3cccc(SC)c3)cc21` (stereo not given) had an RP-LC retention time of 879 s.

Consider `O=C1CC(NS(=O)(=O)c2ccc(Br)s2)CN1` (stereo not given), for which the RP-LC retention time came to 630 s.

Turning to `O=C(Nc1ccccc1F)C(=O)c1cn(CC(=O)N2CCOCC2)c2ccccc12`, the RP-LC retention time stood at 906 s.

Molecule `O=C(c1cnccn1)N1CCC(c2nc(-c3ccccc3)no2)C1` (stereo not given) registered an RP-LC retention time of 758 s.

`Cc1sc(NC(=O)C2CCCO2)nc1-c1ccc2c(c1)NC(=O)CO2` (stereo not given): the RP-LC retention time was determined as 732 s.

Consider `CCN(CC)C(=O)c1ccc2c(c1)N(C(=O)NC)CC2`, for which the RP-LC retention time was 648 s.

For `Cc1nn(C(C)C(=O)Nc2ccc(F)cc2F)c(=O)c2c(-n3cccc3)n(-c3ccccc3)nc12` (stereo not given), the RP-LC retention time turned out to be 1100 s.

Consider `C=CCN1C(=O)COc2ccc(-c3csc(NC(=O)CCCC)n3)cc21`, for which the RP-LC retention time came out at 953 s.

In turn, `O=C(NCCc1csc(-c2cccs2)n1)C1CCN(C(=O)CCc2ccccc2)CC1` yielded an RP-LC retention time of 839 s.

In turn, `O=C(NCc1ccc(F)c(Cl)c1)c1sc2ncccc2c1-n1cccc1` gave an RP-LC retention time of 1050 s.

`CN1CCN(c2cc(-c3nc(-c4ccc(Cl)cc4)no3)c3ccccc3n2)CC1` displayed an RP-LC retention time of 881 s.

`CCOc1ccc(-c2cn3ccn(-c4cccc(Cl)c4)c(=O)c3n2)cc1` yielded an RP-LC retention time of 899 s.

Take `CCOC(=O)N1CCN(c2ncc(S(=O)(=O)c3ccc(C)cc3)c(N)n2)CC1`: the RP-LC retention time amounted to 875 s.

Take `COc1ccc(C(=O)N2C[C@@H](Oc3cccnc3)C[C@H]2C(=O)NC2CC2)cn1`: the RP-LC retention time was 562 s.

`O=C(c1ccc2nc[nH]c2c1)N1CCCN(c2cc(-c3ccc(Br)cc3)[nH]n2)CC1` returned an RP-LC retention time of 625 s.

`O=C(C1CCN(S(=O)(=O)Cc2ccc(Cl)cc2)CC1)N1CCOCC1`: the RP-LC retention time came to 725 s.

In the case of `CC1CCC2(CC1)N=C(c1ccccc1)C(=O)N2CC(=O)Nc1ccc2c(c1)OCCO2` (stereo not given), the RP-LC retention time was determined as 1120 s.

In turn, `Cc1ccccc1NC(=O)CSc1ccc(-n2nccc2C)nn1` displayed an RP-LC retention time of 869 s.

Molecule `Clc1cccc(-c2nc(Cn3ccnc3)no2)c1` gave an RP-LC retention time of 629 s.

Regarding `O=C(Cc1cccc(F)c1)N1CCCCC1c1nncn1CC1CC1` (stereo not given), the RP-LC retention time was determined as 677 s.

Regarding `CN(C)c1ccc(CNc2ncccc2-c2nnc(-c3ccccc3)o2)cc1`, the RP-LC retention time amounted to 884 s.

Consider `CCN1CCCCc2cc(C(=O)NC3CCS(=O)(=O)C3)sc21` (stereo not given), for which the RP-LC retention time is 790 s.

Regarding `O=C1CCCCC(Cc2ccccc2)(C(=O)NCCc2ccccc2)N1` (stereo not given), the RP-LC retention time was determined as 806 s.

With `O=C(NC1(c2nc(-c3cccnc3)no2)CCCCC1)c1nccc2ccccc12`, the RP-LC retention time was found to be 1100 s.

As to `CCCCNC(=O)c1ccc2c(c1)NC(=O)C1CCCCN21` (stereo not given), the RP-LC retention time amounted to 759 s.

For `Cc1cc(C)n(-c2ccnc(NCCC3=CCCCC3)n2)n1`, the RP-LC retention time is 975 s.

`CSc1ccc(CNC(=O)CCC(=O)N2Cc3cccn3-c3ccccc32)cc1` registered an RP-LC retention time of 961 s.

On to `O=C(C1CCC1)N1CCC(Oc2cc(N3CCOCC3)ncn2)C1` (stereo not given), for which the RP-LC retention time stood at 670 s.

Consider `Cc1cccc(-c2nc(Cn3nnc(-c4nc(-c5ccc(F)cc5)no4)c3C)c(C)o2)c1`, for which the RP-LC retention time is 1300 s.

Molecule `Cc1ccc(Cn2c(=O)c3sccc3n(Cc3nc(-c4ccc(C)cc4)no3)c2=O)cc1` had an RP-LC retention time of 1140 s.

For the molecule `COC(=O)CCC(=O)Nc1nc(-c2ccccc2)cs1`, the RP-LC retention time is 840 s.

For `CCn1cnc(S(=O)(=O)N2CCC(C(=O)N3CCN(c4cccc(C(F)(F)F)c4)CC3)CC2)c1`, the RP-LC retention time was determined as 868 s.

`COc1ccc(N2CCN(C(=O)Cn3cccc3-c3nnc(C4CCC4)o3)CC2)cc1` gave an RP-LC retention time of 795 s.

Regarding `Cc1cccc(-n2cc(C(=O)OCC(=O)OC(C)(C)C)c3ccccc3c2=O)c1`, the RP-LC retention time was 1210 s.

In the case of `COC(=O)[C@H](CCSC)NC(=O)c1ccc(-n2cnnn2)cc1`, the RP-LC retention time was 693 s.

In turn, `CCOc1cc(-c2ccc(F)cc2)nc2ccc(C(=O)N3CCN(c4ccccn4)CC3)cc12` yielded an RP-LC retention time of 624 s.

The molecule `CCOc1ccccc1N(C)C(=O)Cc1c(C(=O)O)c(C)cn1C` displayed an RP-LC retention time of 773 s.

`C/C=C1\C2C=C(C)C[C@]1(N)c1ccc(=O)[nH]c1C2`: the RP-LC retention time stood at 578 s.

As to `Cc1ccc2c(c1)N(CCC(C)C)N=C(C(=O)N1CCCCC1)S2(=O)=O`, the RP-LC retention time was determined as 1080 s.

`COc1ccc(-c2nc(CS(=O)(=O)c3ccc(C)cc3)no2)c(C)c1`: the RP-LC retention time is 1010 s.

In the case of `O=C(NCC1(c2cccs2)CCOCC1)c1cccs1`, the RP-LC retention time came to 705 s.

For `Cc1ccc(-c2noc(-c3cccc(S(=O)(=O)Nc4ccccc4)c3)n2)cc1`, the RP-LC retention time is 1200 s.

`CCC1(C(=O)Nc2ccc(C)c(F)c2)CCCCC(=O)N1` (stereo not given): the RP-LC retention time is 771 s.

Molecule `Cc1nnc(C2CC3(CCN(CCc4ccccc4)CC3)CN2Cc2ccccc2)o1` (stereo not given) returned an RP-LC retention time of 656 s.

The molecule `CCOC(=O)c1c(S(=O)(=O)N2CCC(C(=O)Nc3cccc(F)c3)CC2)c(C)n(C)c1C` showed an RP-LC retention time of 862 s.

`CCCCCNC(=O)C1CCCN(S(=O)(=O)c2cc(Cl)ccc2OC)C1` (stereo not given) came in with an RP-LC retention time of 960 s.

In the case of `O=C(c1ccc2nc[nH]c2c1)N1CCCn2nc(-c3ccc(Cl)cc3)cc2C1`, the RP-LC retention time is 643 s.

On to `Clc1ccccc1N1CCN(c2ncnc3[nH]ncc23)CC1`, for which the RP-LC retention time was 660 s.

`COc1ccc(Cl)cc1NC(=O)c1cccn1-c1cccnc1` gave an RP-LC retention time of 887 s.

`O=C(NCCC1=CCCCC1)C1CCN(c2cncnc2N2CCOCC2)CC1` gave an RP-LC retention time of 656 s.

In the case of `CCOC(=O)c1noc2ncnc(Nc3ccc(CN4CCCCC4)cc3)c12`, the RP-LC retention time worked out at 593 s.
